Source: patent publication US11434490B2, “Fluorogen-binding RNA aptamers” (CENTRE NATIONAL DE LA RECHERCHE SCIENTIFIQUE, priority 2017, dated 2022)

Assays:
HEK293T cells = assay: Cellular imaging of transfected Mango tagged RNAs; assay type: cell-based; details: fixed cells
Experimental: HEK293T cells were grown in Dulbecco Modified Eagle's Medium containing 10% Fetal Bovine Serum, 2 mM D-Glucose, 2 mM L-Glutamine, 1 mM Sodium Pyruvate and 100 U/ml Penicillin/Streptomycin (Thermo Fisher) and maintained at 37° C. with 5% CO2 in a humidified incubator. Cells used for imaging were cultured in Ibidi glass bottomed 8-well chamber slides (Ibidi GmbH).
RNA was transfected directly into 8-well chamber slides using the Lipofectamine-based CRISPRMAX reagent following the manufacturers guidelines (Invitrogen). Initially 125 nM RNA containing 10 mM Sodium Phosphate buffer (pH 7.2), 100 mM KCl and 1 mM MgCl2 was incubated at room temperature followed by a 1:1 dilution in OptiMEM prior to transfection. The RNA transfected was incubated at 37° C. for 1 hour in complete growth medium.
Cells were fixed in PBS containing 4% paraformaldehyde for 10 min on ice (Thermo Fisher) followed by permeabilization in 0.2% Triton X-100 for 10 min at room temperature. Cells were first blocked (2% BSA in PBS) for 30 min followed by primary antibody (1:50-1:500 dilutions) incubation for 120 min in blocking solution.
Primary antibodies used here were: Anti-Ribosomal Protein S6 (MAB5436, R&D Systems), Anti-ATP5B (ab14730, Abcam), Anti-GW182 (ab7052, Abcam), Anti-EEA-1 (ab70521, Abcam), Anti-LSm3 (NBP2-14206, Novus Biologicals), Anti-TIAR (sc-398372, Santa Cruz). Secondary antibodies used were Donkey Anti-mouse and Donkey Anti-Rabbit Alexa Fluor 680 (Molecular Probes). Primary antibodies were washed three times for 20 min each in blocking solution followed by incubation with secondary antibody at 1:500 dilution for 60 min, which was subsequently washed as above.
To visualize the nuclear boundary in live cells, a plasmid expressing a fluorescently tagged histone protein (EBFP2-H2B-6, Addgene plasmid 55243) was transfected using FuGene 6 (Promega) 24 h prior to RNA transfection. […] Following incubation of the RNA transfection, the cells were washed once with PBS and replaced with live-cell imaging media (Fluorobrite DMEM supplemented with 20 mM HEPES, Invitrogen). Live and fixed cell images were taken using a Zeiss Elyra wide-field microscope by exciting at 405 nm (Blue), 488 nm (Green) and 642 nm (Far-Red) and detecting at 420-480 nm, 495-550 nm and >650 nm, respectively. Live cells were maintained at 37° C. with 5% CO2 in a stage top incubator (Tokai Hit). Images were processed using FIJI and spot detection analysis was performed on each maximum projection by the spot detector plugin in the ICY image analysis software, which detects significant foci with a pixel area 3×3 pixels.

[1] = cited from earlier work
[2] = Fluorescence titration, binding affinity for TO1-Biotin; details: for Kd: ligand TO1-B (TO1-Biotin)
From the text: (§1) FIG. 2|RNA Mango I, II, III and IV core sequences and their properties. (a) Color coded alignment of RNA Mango I, II, III and IV. G residues in yellow are protected from DMS cleavage (data from panel d) when folded in the presence of fluorophore. Quadruplex stacks and their associated propeller sequences are numbered 1 through 4. The GAAA isolation motif of Mango I, together with two adenines essential for binding, are shown in green and red respectively. Purple shading represents a flanking stem region common for all four Mango aptamers. Schematic: A tertiary structure schematic of Mango I, showing tier 1, 2 and 3 of its quadruplex structure (T1, T2 and T3) and color-coded as in (a). […] Bottom: Top view of the Mango I core (PBD ID: 5V3F), showing the T3 tier of the quadruplex and relevant propeller residues, color coding matches the schematic and panel a. […] KD values are shown next to each titration. (c) Same as for panel b but using 20 nM TO3-Biotin. Data for panels b and c have been normalized such that Mango I has a maximum fluorescence of 1. Error bars are standard deviation of three replicates. (d) DMS chemical protection patterns for the four Mango aptamers. 3′ end-labelled RNA (terminal ^32pCp shown as a black asterisk) was subjected to DMS chemical modification followed by reduction by NaBH4 and aniline cleavage as described in the methods. […] Legend: T1—denatured T1 ladder; OH—partial alkaline hydrolysis ladder; (−) DMS—denatured reaction with ddH2O added in place of DMS; 80° C.
(§2) Fluorescence data was gathered using a Varian Cary Eclipse Spectrophotometer unless otherwise stated. […] Fluorescence was measured at the maximum excitation and emission wavelengths of each complex (FIG. 13).
Where F([RNA]) is the fluorescence as a function of RNA concentration [RNA], Fmax is the maximal fluorescence of the bound complex and Funbound the fluorescence of the unbound fluorophore. When the fluorescence of Funbound was undetectable, it was set to zero.
(§3) Fluorescence readings were recorded using a Varian Cary Eclipse Spectrophotometer set to measure at the maximum excitation and emission wavelengths of the Mango II aptamer dye complex. Fluorescence titrations were performed in Mango selection buffer (WB: 140 mM KCl, 1 mM MgCl2, 10 mM NaH2PO4 pH 7.2, 0.05% Tween-20).

[3] = Fluorescence enhancement of TO1-Biotin; assay type: biochemical; details: ligand TO1-B; calculated relative to wt from the binding titration
Experimental: (§4) The bandwidth for all measurements was 1.5 nm for all experiments. Measurements were performed in a 0.2 cm path length cuvette in a background of 20 mM MOPS pH 7.0, 150 mM KCl, 10 μM EDTA. Fluorescence readings were taken in the absence of RNA at a ligand concentration of 0.82 μM. A concentrated, annealed stock of RNA was then added to the cuvette resulting in a final concentration of 2 μM RNA and allowed to equilibrate for 1 minute prior to taking an emission reading. Fluorescence enhancement was determined by dividing the fluorescence signal of ligand in the presence of RNA by the fluorescence signal in the absence of RNA corrected for the background of the instrument.

[4] = Fluorescence enhancement of TO3-Biotin; assay type: biochemical; details: ligand TO3-B; calculated relative to wt from the binding titration
Experimental: as §4

[5] = Fluorescence titration, binding affinity for TO3-Biotin; details: ligand TO3-B (TO3-Biotin)
From the text: as §1, §2
Or to the following equation for TO3-Biotin and NMM experiments: F([RNA])=Fmax[RNA]/(KD+[RNA])+Funbound (Eq. 2) Fmax was determined using Eq. 1 or Eq. 2 as appropriate. Temperature Dependent Fluorescence and UV Melting Curves
as §3

[6] = Photobleaching under constant illumination; details: identical illumination conditions, on average
Experimental: FIG. 16|Formation of 5S-Mango foci and their dynamics in live cells. (a) 5S-Mango IV imaged post cell fixation at 5, 15, 30 and 60 mins after transfection using Lipofectamine based CRISPRMAX transfection reagent. […] (c) Root mean-squared displacement (RMSD) of three observed foci with different diffusive behaviors, fast (Green), slow (Blue) and static (Red) shown in Video 3. Scale bars are 10 μm and arrows indicate foci of interest. (d) Normalized photobleaching traces of 5S-F30-Mango I and IV compared to 5S-F30-dBroccoli under constant illumination with an exposure time of 200 ms. Photobleaching half-lives are stated in the table adjacent and were calculated from an exponential fit of each curve.

[7] = Salt dependence of Mango/TO1-Biotin fluorescence: K+ titration; assay type: binding; details: 25 nM RNA, 50 nM TO1-Biotin, 10 mM Tris pH 7.2
Experimental: (§5) FIG. 10|Salt dependence of new Mango variants. Dependence of fluorescence of each Mango for (a) K^+, (b) Na^+ in place of K^+, and (c) Mg^2+ ions in a buffer containing 140 mM K^+. […] 10 mM Tris buffer (pH 7.2) was used in place of phosphate of the WB buffer to avoid monovalent counter ions. Color-coding is as follows: Black—Mango I, Blue—Mango II, Green—Mango III, Orange—Mango IV. Hill coefficients are fitted to dark points. Points in lighter shade have been excluded from the fit. Error bars are standard deviations of three replicates.

[8] = Brightness and photophysics of Mango fluorophore complexes; assay type: physicochemical
From the text: as §1
FIG. 13|Photophysics: excitation/emission. (a) Excitation (dark curve) and emission (light curve) spectra of each Mango. All Mangos have Δex max=510 nm and Δem max=535 nm. Color-coding is as follows: Black—Mango I, Blue—Mango II, Green—Mango III, Red—Mango IV.
as §2

[9] = Salt dependence of Mango/TO1-Biotin fluorescence: Na+ in place of K+; assay type: binding
Experimental: as §5

[10] = Salt dependence of Mango/TO1-Biotin fluorescence: Mg2+ titration; details: in the presence of potassium; Mg2+ 256 mM
Experimental: as §5

[11] = Formaldehyde resistance assay; assay type: physicochemical; details: in vitro, TO1-Biotin
Experimental: FIG. 15|Effect of formaldehyde on Mango fluorescence. […] In (b) RNA is incubated with the corresponding amounts of formaldehyde first for one hour, then TO1-Biotin is added. Data for each panel is normalized to RFU at the 0% formaldehyde, 0 min point.
RNA Mango aptamers were incubated with TO1-Biotin in WB buffer for at least one hour until equilibrium fluorescence was reached. […] Fluorescence was measured as a kinetic run at a rate of 2 readings per minute using a Varian Cary Eclipse Fluorescence Spectrophotometer, ex/em=510±2.5/535±5 nm.

## 5S-F30-Mango IV: 5S rRNA tagged with Mango IV in F30 scaffold; SEQ ID NO: 6894
HEK293T cells
  foci formation after transfection: consistently exhibit visible foci
  fraction of foci that are clearly nuclear: ~5%
  fraction of foci that are cytoplasmic: ~85%
HEK293T cells; 200 nM TO1-Biotin
  mean intensity of foci against 5S-F30-Control background: two to three-fold higher

## CN1C(=Cc2cc[n+](C)c3ccccc23)Sc2ccccc21 [TO1, Thiazole Orange]
[1]; aqueous solution
  fluorescence quantum yield ϕ: 2×10^−4
[1]
  intracellular half-life: short intracellular half-life
  membrane permeability: plasma and nuclear membrane permeability
[1]; inserted into double-stranded helical nucleic acids
  fluorescence quantum yield: 0.11

## Mango II - A12U: Mango-II point mutant; SEQ ID NO: 6908 (GGCACGUACGAAGGUGAGGAGAGGAAGAGGAGAGUACGUGC; chemistry not given here)
[2]
  Kd: 0.0004 ± 7e-05 µM
[3]
  FIE (fluorescence enhancement) †: 1342 †

## Mango II - A15U A20U A25U A26U A31U: Mango-II five-fold mutant; SEQ ID NO: 6910 (GGCACGUACGAAGGUGAGGUGAGGUUGAGGUGAGUACGUGC; chemistry not given here)
[2]
  Kd: 0.00192 ± 0.00039 µM
[3]
  FIE (fluorescence enhancement) †: 1133 †

## Mango II - A15U A20U A25U: Mango-II triple mutant; SEQ ID NO: 6911 (GGCACGUACGAAGGUGAGGUGAGGUAGAGGAGAGUACGUGC; chemistry not given here)
[2]
  Kd: 0.00076 ± 0.00024 µM
[3]
  FIE (fluorescence enhancement) †: 1329 †

## Mango II - A17U: Mango-II point mutant; SEQ ID NO: 6909 (GGCACGUACGAAGGAGAGGUGAGGAAGAGGAGAGUACGUGC; chemistry not given here)
[2]
  Kd: 0.001 ± 0.00016 µM
[3]
  FIE (fluorescence enhancement) †: 1237 †

## Mango II - A22C: Mango-II point mutant; SEQ ID NO: 6906 (GGCACGUACGAAGGAGAGGAGAGGCAGAGGAGAGUACGUGC; chemistry not given here)
[4]
  FIE (fluorescence enhancement) †: 37 †
[5]
  Kd: 0.0051 ± 0.0014 µM
[2]
  Kd: 0.0009 ± 0.0002 µM
[3]
  FIE (fluorescence enhancement) †: 1407 †

## Mango II - A22G: Mango-II point mutant; SEQ ID NO: 6907 (GGCACGUACGAAGGAGAGGAGAGGGAGAGGAGAGUACGUGC; chemistry not given here)
[4]
  FIE (fluorescence enhancement) †: 52 †
[5]
  Kd: 0.0076 ± 0.0037 µM
[2]
  Kd: 0.0064 ± 0.0015 µM
[3]
  FIE (fluorescence enhancement) †: 1224 †

## Mango-IV: minimal construct engineered from isolate R5-NMM-5
[6]
  bleaching half-lives longer than RNA Spinach: 10 times
[7]
  Kd: 64 ± 24 mM
[7]; * estimated from initial rise of fluorescence
  Hill Coefficients K^+: 1.5 ± 0.2*
[8]; TO1-Biotin complex
  brightness of the TO1-Biotin bound complex: 32,000 M^−1cm^−1
[8]; TO1-Biotin, FIG. 2b
  brighter than Mango-I: 3 fold
[2]
  TO1-Biotin binding affinity (in words): slightly weaker affinities than Mango-I
[2]; Mango-IV sequence variant against Mango-IV
  decrease in binding affinity on replacing CGA with GAA: four-fold
[9]
  fluorescence in the presence of sodium ions: limited fluorescence response
[10]
  effect of high levels of Mg^2+ on fluorescence: significantly resistant
[11]
  resistance to formaldehyde: substantially resistant to formaldehyde
